{
  "source": "paper PMC8709388",
  "about": "“In Search of Small Molecules That Selectively Inhibit MBOAT4” (Molecules, 2021)",
  "biological_target": "T1, mouse GOAT (Mus musculus, UniProt P0C7A3)",
  "T1 construct": "made in house; host or cells: sf9 insect cells (baculovirus, pFastBac1-mouseGOAT); total membrane fraction, not purified",
  "T1 sequence (P0C7A3 1-435)": "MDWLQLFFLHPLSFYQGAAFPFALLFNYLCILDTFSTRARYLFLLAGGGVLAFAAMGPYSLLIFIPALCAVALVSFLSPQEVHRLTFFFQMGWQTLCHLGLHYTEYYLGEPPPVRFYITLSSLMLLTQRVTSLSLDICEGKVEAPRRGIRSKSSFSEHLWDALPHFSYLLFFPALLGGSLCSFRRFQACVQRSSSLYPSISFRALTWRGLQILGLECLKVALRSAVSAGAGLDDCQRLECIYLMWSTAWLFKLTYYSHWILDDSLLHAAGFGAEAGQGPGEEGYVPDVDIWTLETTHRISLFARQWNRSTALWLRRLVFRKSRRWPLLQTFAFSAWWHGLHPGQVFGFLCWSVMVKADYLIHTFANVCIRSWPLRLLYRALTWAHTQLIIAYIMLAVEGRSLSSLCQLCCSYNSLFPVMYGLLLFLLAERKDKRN",
  "test": "Acyltransferase assay: inhibition of proghrelin octanoylation by GOAT in sf9 membrane fractions",
  "type": "biochemical",
  "conditions": "for pIC50: sf9 membranes containing mouse GOAT, [3H]octanoyl CoA, proghrelin8His, read-out: IC50 (GOAT, membrane fraction, in-house); for GOAT inhibition in vitro (in words): membrane fractions",
  "description": "pFastBac1-mouseGOAT and pGEX-GST-proGhrelin8His plasmid encoding for mouse proghrelin, fused to GST with TEV cleavage site to release proghrelin moiety, was a kind gift from the Brown and Goldstein laboratory. The BL21Gold E. coli chemically competent cells were transformed with the pGEX-GST-proGhrelin8His plasmid and selected on agar plates with ampicillin. A few colonies were used to inoculate 50 mL LB, and cultures were grown overnight at 37 °C. The next morning, 10 mL of overnight culture was used to inoculate 1L LB. A total of 4 flasks with 1L LB each were inoculated with 10 mL of the overnight culture, and bacterial cultures were grown at 37 °C until they reached OD600 ~ 0.6. The cultures were chilled on ice for 30 min and then 0.25 mM of IPTG was added to each culture. The cultures were then moved back to a shaker set to 18 °C and incubated overnight. Cells were harvested and resuspended in 200 mL buffer containing 25 mM Tris-HCl pH 8.0, 150 mM NaCl, 1 mM EDTA and 0.5 mg/mL lysozyme. The cell suspension was sonicated, and cell debris was removed by centrifugation. The soluble fraction was passed through glutathione resin by gravity. The resin was washed with 75 mL of lysis buffer without lysozyme. The GST-proGhrelin8His protein was eluted with lysis buffer without lysozyme, supplemented with 15 mM reduced glutathione, GSH. About 50 mg of target protein, as evaluated by SDS-PAGE, was eluted. The eluate was supplemented with 1 mM DTT and about 7.5 mg of recombinant GST-TEV protease (see below) was added. The solution was incubated at 16 °C overnight to allow complete release of proghrelin8His from GST. Prior to Ni-NTA chromatography, 5 mM CaCl2 was added, and the solution was spun down at 4000× g for 10 min. After elution from Ni-NTA resin, protein solution was dialyzed against buffer containing 10 mM Tris-HCl pH 8.5, 50 mM NaCl, 10% glycerol and 0.01% CHAPS using 3 kDa cutoff membrane with 3 buffer exchanges. The protein was quantified by absorbance at A280 and qualified by SDS-PAGE.\nThe baculovirus expression of mouse GOAT. DH10Bac E. coli strain (ThermoFisher, Waltham, MA, USA) was transformed with pFastBac1-mouseGOAT plasmid, and Bacmid DNA from 12 white colonies was analyzed by DNA sequencing and PCR reaction. All clones were transfected to sf9 cells and level of mGOAT expression was compared between clones from cells producing P2. The clone with the highest mGOAT expression level was used to produce P3. For membrane isolation, sf9 cells were seeded at 2–4 × 10^6 /mL in total 1 L volume of sf-900 serum-free medium (ThermoFisher) and infected with P3 virus. At day 2 post-infection, cells were harvested and resuspended in 40 mL of buffer containing 50 mM NaPi pH 7.2, 150 mM NaCl, 1 mM EDTA, 100 μM bis (4-nitrophenyl) phosphate, 2.5 μg/mL aprotinin, 10 μg/mL leupeptin, 10 μg/mL pepstatin A. Cell suspension was briefly sonicated and cell debris was removed by centrifugation at 3000× g for 10 min. Membrane fraction was collected from supernatant by centrifugation at 100,000× g for 1 h. Membrane pellet was resuspended in storage buffer (50 mM NaPi pH 7.2, 150 mM NaCl and 10% glycerol) and kept at −80 °C. Acyltransferase assay: The assay conditions included per 50 μL reaction: 50 μg of total sf9 membranes, various (for modality experiment) or fixed (for IC50) concentrations of recombinant proghrelin8His peptide and various concentrations of tested compound (for IC50), 100 μM palmitoyl CoA, 50 mM HEPES pH 7.0 and 1 μM [^3H] octanoyl CoA (~5.5 dpm/fmol—American Radioactive Chemicals). After incubation of the reaction mixture at 37C for 10 min, tubes were placed on ice and 10 μL of 1M HCl was added to each tube. Following the addition of 740 μL of cold quench buffer (50 mM NaPi pH 7.4, 10 mM Imidazole, 150 mM NaCl, 100 μM bis (4-nitrophenyl) phosphate, 1 mM phenylmethylsulfonyl fluoride and 0.1% Triton), 0.2 mL of 50% Ni-NTA slurry was added to each reaction. […]",
  "note": "pIC50: −log10 of the molar value.",
  "data": [
    {"smiles": "Cc1nc(Cl)nc(N)c1CCC1CCN(C(=O)[C@H](C)NC(=O)c2ccnn2C)CC1", "note": "[compound 5]", "values": [
      {"measurement": "pIC50", "result": 7.06}
    ]},
    {"smiles": "CNC(=O)c1cccc(Cc2c(C)nc3nonc3c2N)n1", "note": "[compound 6, reference compound]", "values": [
      {"measurement": "pIC50", "result": 7.19}
    ]},
    {"smiles": "CCCCOCC(=O)N1CCC(CCc2c(C)nc3nonc3c2N)CC1", "note": "[compound 10, 1-(4-(2-(7-amino-5-methyl-[1,2,5]oxadiazolo[3,4-b]pyridin-6-yl)ethyl)piperidin-1-yl)-2-butoxyethan-1-one]", "values": [
      {"measurement": "GOAT inhibition in vitro (in words)", "result": "as potently as did 5 and 6"},
      {"measurement": "pIC50", "result": 7.20}
    ]},
    {"smiles": "Cc1nc2nonc2c(N)c1CCC1CCN(C(=O)[C@H](C)NC(=O)c2ccnn2C)CC1", "note": "[compound 11, (S)-N-(1-(4-(2-(7-amino-5-methyl-[1,2,5]oxadiazolo[3,4-b]pyridin-6-yl)ethyl)pip-eridin-1-yl)-1-oxopropan-2-yl)-1-methyl-1H-pyrazole-5-carboxamide]", "values": [
      {"measurement": "GOAT inhibition in vitro (in words)", "result": "as potently as did 5 and 6"},
      {"measurement": "pIC50", "result": 7.08}
    ]}
  ]
}
